# Test results: US20110144001A1, “HIGHLY BRIDGED PEPTIDES FROM ACTINOMADURA NAMIBIENSIS” (SANOFI-AVENTIS, priority 2008, published 2011)
# Experiments:
# [1] = system: Bacillus subtilis (ATCC 6633); experiment: microbe, parasite or virus in culture; type: cell-based; conditions: 37° C., 20 μl of 1 mg/ml test solution on 6 mm filter, 1 to 3 days
# Procedure: (§1) The compounds were dissolved in water with 10% MeOH to a final concentration of 1 mg/ml. For the bioassay sterile Nunc plates with a size of 24×24 cm were used. For one plate 200 ml of agar were used. The agar was cooled after autoclaving to 55° C. and 2-4 ml of culture suspension of the test organism were added before plating. To each plate 64 filter plates with 6 mm in diameter were added. To each filter 20 μl of the test solution were added and incubated for 1 to 3 days at 28° C. or 37° C. The inhibition zone in mm was reported. For a detailed description of the methods, see Bauer et al., Amer. J. Clin. Pathol. 1966, 45, 493-496; Müller & Melchinger, Methoden in der Mikrobiologie, Franckhsche Verlagshandlung, Stuttgart (1964); Mueller & Hinton, Proc. Soc. Expt. Biol. Med. 1941, 48, 330-333.
# [2] = system: Streptomyces murinus (DSM 40091); experiment: microbe, parasite or virus in culture; type: cell-based; conditions: 28° C., 20 μl of 1 mg/ml test solution on 6 mm filter, 1 to 3 days
# Procedure: as §1
# [3] = system: SNI mouse model of neuropathic pain; experiment: Spared nerve injury (SNI) mouse model of neuropathic pain, tactile allodynia by automatic von Frey test; type: in vivo, C57B6 mice; conditions: 3 mg/kg intravenous single application
# From the text: Labyrinthopeptin A1 was studied in the spared nerve injury (SNI) mouse model of neuropathic pain in order to proof the activity on tactile allodynia. Under general anesthesia, the two major branches of the sciatic nerve in adult male C57B6 mice (weight: 22.8 g+/−0.35 SEM) have been ligated and transsected, with the sural nerve left intact. Tactile allodynia has been determined with the automatic von Frey test: using a dump needle stick, the plantar skin of hind paws was exposed to a pressure stimulus of increasing intensity up to 5 g. The force in grams at which the animal responded with hindpaw withdrawal was used as a read-out for tactile allodynia. The study was performed 7 days after nerve lesion over 6 hours with an additional measurement after 24 hours. Within two days after nerve transsection, tactile allodynia developed completely and remained stable over at least two weeks. The compound was administered intravenous as a single application (3 mg/kg). As a vehicle for the intravenous application was the 1:1:18 (ethanol:solutol: phosphate buffered saline) vehicle chosen.
# The effect was gone 24 hours after application. […] The percent benefit of the treatment was evaluated using the |AUC1-6 hour| values of the ipsilateral vehicle group (0% benefit) and all |AUC1-6 hour| values of the contralateral sides of all three groups (100% benefit=maximal possible effect). […]
SMILES,"inhibition zone, Bacillus subtilis (ATCC 6633) [1] [mm]","inhibition zone, Streptomyces murinus (DSM 40091) [2] [mm]","percent benefit of the treatment from |AUC1-6 hour| of paw withdrawal threshold ([3]; 7 days after nerve lesion, 0% = ipsilateral vehicle, 100% = contralateral sides) [% benefit]","treatment effect on delta |AUC1-6 hour| of paw withdrawal threshold (1-way ANOVA, Dunnett analysis) ([3]; vs vehicle)","zone of inhibition at 1000 µg/mL ([1]; Bacillus subtilis, ATCC6633) [mm]","zone of inhibition at 1000 µg/mL ([2]; Streptomyces murinus, DSM40091) [mm]"
C/C=C1\NC(=O)[C@H](Cc2ccccc2)NC(=O)[C@@H]2CCCN2C(=O)[C@H](C(C)C)NC(=O)[C@H](Cc2c[nH]c3ccccc23)NC(=O)[C@]23CSC[C@H](NC1=O)C(=O)N[C@H](C(=O)NCc1ccccc1)CSSC[C@@H](NC(=O)[C@@H]1CSC[C@]4(C[C@H](NC(=O)OC(C)(C)C)C(=O)N[C@@H](CC(N)=O)C(=O)N[C@@H](C)C(=O)N4)C(=O)N[C@@H](C(C)C)C(=O)N[C@@H](Cc4c[nH]c5ccccc45)C(=O)N[C@@H](CCC(=O)NCc4ccccc4)C(=O)N1)C(=O)N[C@@H](C2)C(=O)N[C@@H]([C@@H](C)O)C(=O)NCC(=O)N3,9,7,,,,
"C/C=C1\NC(=O)[C@H](Cc2ccccc2)NC(=O)[C@@H]2CCCN2C(=O)[C@H](C(C)C)NC(=O)[C@H](Cc2c[nH]c3ccccc23)NC(=O)[C@]23CSC[C@H](NC1=O)C(=O)N[C@H](C(=O)O)CSSC[C@@H](NC(=O)[C@@H]1CSC[C@]4(C[C@H](NC(=O)OC(C)(C)C)C(=O)N[C@@H](CC(N)=O)C(=O)N[C@@H](C)C(=O)N4)C(=O)N[C@@H](C(C)C)C(=O)N[C@@H](Cc4c[nH]c5ccccc45)C(=O)N[C@@H](CCC(=O)O)C(=O)N1)C(=O)N[C@@H](C2)C(=O)N[C@@H]([C@@H](C)O)C(=O)NCC(=O)N3 [Labyrinthopeptin A1 derivative, Ex. 16]",9,0,,,,
C/C=C1\NC(=O)[C@H](Cc2ccccc2)NC(=O)[C@@H]2CCCN2C(=O)[C@H](C(C)C)NC(=O)[C@H](Cc2c[nH]c3ccccc23)NC(=O)[C@]23CSC[C@H](NC1=O)C(=O)N[C@H](C(=O)O)CSSC[C@@H](NC(=O)[C@@H]1CSC[C@]4(C[C@H](N)C(=O)N[C@@H](CC(N)=O)C(=O)N[C@@H](C)C(=O)N4)C(=O)N[C@@H](C(C)C)C(=O)N[C@@H](Cc4c[nH]c5ccccc45)C(=O)N[C@@H](CCC(=O)O)C(=O)N1)C(=O)N[C@@H](C2)C(=O)N[C@@H]([C@@H](C)O)C(=O)NCC(=O)N3 [Labyrinthopeptin A1],16.5,13,95,significant treatment effects,,
"CN(C)[C@@H]1C(O)=C(C(N)=O)C(=O)[C@@]2(O)C(O)=C3C(=O)c4c(O)cccc4[C@@](C)(O)[C@H]3C[C@@H]12 [Tetracycline, reference compound]",,,,,32,24
"C/C=C1\NC(=O)[C@H](Cc2ccccc2)NC(=O)[C@@H]2CCCN2C(=O)[C@H](C(C)C)NC(=O)[C@H](Cc2c[nH]c3ccccc23)NC(=O)[C@]23CSC[C@H](NC1=O)C(=O)N[C@H](C(=O)O)CSSC[C@@H](NC(=O)[C@@H]1CSC[C@]4(C[C@H](NC(=O)OCCCCC)C(=O)N[C@@H](CC(N)=O)C(=O)N[C@@H](C)C(=O)N4)C(=O)N[C@@H](C(C)C)C(=O)N[C@@H](Cc4c[nH]c5ccccc45)C(=O)N[C@@H](CCC(=O)O)C(=O)N1)C(=O)N[C@@H](C2)C(=O)N[C@@H]([C@@H](C)O)C(=O)NCC(=O)N3 [Labyrinthopeptin A1 derivative, Ex. 18]",8,7,,,,
